Assay: in vitro
Details: human, hela cells, % viability

SMILES	viability at 28.5 h, 10 µM [%]	viability at 28.5 h, 10 µM (bulk resorufin, single well) [%]
O=C(NCc1cccc2ccccc12)N1CCN(Cc2ccccc2)CC1 [CBK155628]	92.2	–
COc1ncccc1C(=O)N1Cc2ccccc2C1 [CBK200324]	101	–
Cc1cc(Cl)ccc1CNC(=O)C1=CC(=O)CC(C)(C)O1 [CBK153282]	97.5	–
CC(C)N1CCC(CNC(=O)c2cc(C3CCCCC3)no2)CC1 [CBK283293]	98.5	–
COc1ccc(OCC(=O)Nc2ccc3oc(-c4ccc(OC)c(Br)c4)nc3c2)cc1 [CBK263913]	99.4	–
Cc1c(S(=O)(=O)N2CCN(C)CC2)sc2ccc(C(C)C)cc12 [CBK170362]	90.1	–
O=C(CC12CC3CC(CC(C3)C1)C2)NCC(=O)Nc1ccc2[nH]c(=O)[nH]c2c1 [CBK295349]	85.3	–
COc1ccc(C(=O)Nc2nc(OCC(F)(F)F)cnc2/C=C\c2ccccc2)c(OC)c1 [CBK145367]	104	–
N#Cc1ccc(C(=O)Nc2nnc(C3=COCCO3)o2)cc1 [CBK287411]	83.3	–
COc1cc(C(c2c(C)n(C)n(-c3ccccc3)c2=O)c2c(C)n(C)n(-c3ccccc3)c2=O)ccc1O [CBK261690]	110	–
COc1ccc(/C=C/C(=O)O)cc1S(=O)(=O)N1CCCC1 [CBK058388]	93.5	–
Brc1n[nH]c2nc(NCc3ccco3)ncc12 [CBK022327]	91.6	–
CCOC(=O)c1csc(C2CCCN2C(=O)c2ccsc2)n1 (centres unmarked) [CBK304125]	77.5	–
CCOC(=O)C1CCN(c2cccc(F)c2C#N)CC1 [CBK304558]	101	–
CC1(C)CC(=O)C2=C(C1)Nc1[nH][nH]c(=O)c1C2c1ccccn1 (centres unmarked) [CBK288463]	92	–
COCCc1noc(C(C)NC(=O)Cc2cccc(O)c2)n1 (centres unmarked) [CBK307493]	99.5	–
COc1cccc(COc2nccnc2-c2ccc(C)cc2C)c1OC [CBK106995]	93.2	–
CSCC(=O)N[C@H]1CCN2C(=O)N(c3cccc(C(C)=O)c3)C(=O)[C@@H]2C1 [CBK289546]	90.6	–
CC(C)CC(Nc1ncnc2c1oc1ccccc12)C(=O)O (centres unmarked) [CBK293974]	100	–
CC(=O)Nc1ccc2c(CSc3nnc(-c4ccco4)n3C)cc(=O)oc2c1 [CBK297534]	91.7	–
O=C(NCCc1c[nH]c2ccc(Cl)cc12)c1cc(F)c(Cl)cc1F [CBK159763]	93.6	–
COc1cc(C(=O)Nc2ccc3c(c2)COC2(CCN(C(=O)OC(C)(C)C)CC2)O3)cc(OC)c1OC [CBK091527]	–	85.9
Clc1ccc(COc2ccnc(N3CCCN(CC4CC4)CC3)n2)cc1Cl [CBK083963]	81.3	–

SMILES	viability at 28.5 h, 10 µM [%]	viability at 28.5 h, 10 µM (bulk resorufin, single well) [%]
O=C(O)CCC(=O)Nc1ccccc1Sc1ccc(Cl)cc1 [CBK287015]	99.4	–
CC(=O)Nc1cc(S(N)(=O)=O)c(F)cc1C [CBK034356]	94.1	–
CC(C)c1ccc(S(=O)(=O)NCCC(C)(C)C)cc1 [CBK043640]	95.4	–
COc1ccc(C2CCN(CC(=O)NCc3ccco3)CC2)cc1 [CBK283562]	103	–
O=C(Nc1ccc(O)c(C(=O)O)c1)c1ccc2c(c1)C(=O)N(CC1CCCO1)C2=O (centres unmarked) [CBK268280]	101	–
CCOc1nc(Nc2nc(-c3ccccc3)cs2)nc(OCC)n1 [CBK262442]	98.1	–
CCNc1ncnc2c1oc1ccccc12 [CBK263298]	89.8	–
Cc1cc(Cl)c(S(=O)(=O)N2CC(C)OC(C)C2)cc1OCC(N)=O (centres unmarked) [CBK266452]	109	–
Cc1cc(N2CCN(c3ccccc3)CC2)nc(-c2ccccc2O)n1 [CBK116405]	92.1	–
O=C(COC(=O)C1CCN(S(=O)(=O)c2cccc3cccnc23)CC1)c1ccc([N+](=O)[O-])cc1 [CBK264412]	101	–
Cn1c2ccccc2c2cc(/C=C(/NC(=O)c3ccccc3)C(=O)Nc3cccc(O)c3)ccc21 [CBK261449]	111	–
Cn1c(=O)c2[nH]c(NN=C3C(=O)NC(=O)NC3=O)nc2n(C)c1=O [CBK262891]	–	103
COc1ccc(N(CC(=O)Nc2ccc3c(c2)oc2ccccc23)S(=O)(=O)c2ccccc2)cc1 [CBK264814]	104	–
CCc1onc(C)c1C(=O)NC(Cc1ccsc1)c1nccs1 (centres unmarked) [CBK285142]	94	–
COc1ccc(C2(C(=O)NCCN3CCCC3)CC2)cc1 [CBK149824]	95.6	–
CCN(CC)c1ccc(NC(=O)c2cc(-c3cccnc3)cnc2NCCN2CCOCC2)cc1 [CBK126566]	105	–
c1cnc(N2CCN(CC3CC3)CC2)c(OCCN2CCOCC2)n1 [CBK082909]	87.2	–
CC1(C)CC(=O)C=C(C(=O)NCc2cccs2)O1 [CBK153292]	97.5	–
Cc1ccccc1NC(=O)c1cnc2sccn2c1=O [CBK287447]	74.9	–
CC1CCCCC12NC(=O)N(Cc1nnc(-c3cccs3)o1)C2=O (centres unmarked) [CBK306205]	82.9	–
CN(C)CCCOc1nccnc1N1CCCC1 [CBK113427]	89.6	–
Cc1ccc(NC(=O)COc2ccccc2/C=C/C(=O)O)cc1C [CBK287026]	111	–
CCCNc1nccnc1-c1cc(C)c(O)c(C)c1 [CBK037210]	87.6	–

SMILES	viability at 28.5 h, 10 µM [%]	viability at 28.5 h, 10 µM (bulk resorufin, single well) [%]
CCN(CC)C(=O)C1CCN(S(=O)(=O)c2ccc(C)cc2)CC1 [CBK157834]	98.7	–
CCOc1cc(C(=O)O)ccc1OCCOc1cccc(C)c1 [CBK299781]	91.6	–
O=C(c1ccc(F)cc1)C1CCN(Cc2ccc3ccccc3c2)CC1 [CBK149122]	79.9	–
Cc1ccc(NC(=O)N2CCC(C(=O)O)CC2)cc1 [CBK156077]	105	–
N#CCCN(C(=O)NCc1cccc(C(F)(F)F)c1)C1CCCCC1 [CBK156350]	96.8	–
COc1ccc(CSc2nc3sc4c(c3c(=O)n2Cc2ccccc2)CCN(Cc2ccccc2)C4)cc1 [CBK263714]	85.1	–
COc1ccc(-c2cnc(N)nc2C2CCCN(C(=O)CCCc3ccccc3)C2)cc1 (centres unmarked) [CBK286091]	94.4	–
COC(=O)c1ccccc1NC(=O)CSc1nc(C)cc(C(F)(F)F)n1 [CBK268682]	89.1	–
O=C1CSC2(C(=O)Nc3ccc(Br)cc32)N1c1cccc([N+](=O)[O-])c1 (centres unmarked) [CBK093451]	94.3	–
Cc1ccc(C2(O)CCN(Cc3cnn(C)c3C)CC2)cc1 [CBK282736]	96.5	–
CCOc1ccc(Cl)cc1CN(C)C(=O)NC(C)CN1CCOCC1 (centres unmarked) [CBK307170]	92.4	–
CS(=O)(=O)c1ccc(CN2CC[C@H](c3nc4ncccc4[nH]3)C2)cc1 [CBK289385]	101	–
O=[N+]([O-])c1ccc2c(c1)COC1(CCNCC1)O2 [CBK116644]	–	83.7
COC(CNC(=O)N(C)Cc1nncn1C(C)C)c1cccs1 (centres unmarked) [CBK306556]	90.8	–
CN1CCC2(CC1)CC(=O)c1cc(-c3ccc(C(=O)N(C)CCC#N)cc3)ccc1O2 [CBK156518]	89	–
CSc1ncc(CNCc2ccc3c(c2)OCO3)c(N)n1 [CBK074563]	89.6	–
CC(=O)Nc1ccc(CNC(=O)CN(C)CC2CCCCO2)cc1 (centres unmarked) [CBK306567]	89.6	–
CCNC(=O)c1ccccc1NC(=O)C(C)Oc1ccccc1 (centres unmarked) [CBK269933]	85.8	–
Fc1cccc(Nc2nc(C3CCNCC3)c3ccccn23)c1 [CBK281522]	107	–
N=c1c2c3c(sc2ncn1CCCn1ccnc1)CCCC3 [CBK264211]	95.5	–
COc1ccc2[nH]cc(CCNC(=O)c3cccnc3)c2c1 [CBK122722]	101	–
CC1CN(S(=O)(=O)c2ccc(NC(=O)c3nc(SCc4ccccc4)ncc3Cl)cc2)CC(C)O1 (centres unmarked) [CBK268930]	89.3	–
Fc1ccccc1CN1CCN(Cc2ccccn2)CC1 [CBK265194G]	100	–

SMILES	viability at 28.5 h, 10 µM [%]	viability at 28.5 h, 10 µM (bulk resorufin, single well) [%]
CS(=O)(=O)Nc1nccnc1N1CCN(C(=O)c2ccno2)CC1 [CBK048861]	107	–
CC(c1ccccc1)N(C)C(=O)Cn1c(-c2cccs2)n[nH]c1=S (centres unmarked) [CBK296718]	95.6	–
COc1ccccc1NC(=O)c1c(NC(=O)c2cccs2)sc2c1CCC(C(C)(C)C)C2 (centres unmarked) [CBK264123]	100	–
CCCC/C=C/c1cccc(Nc2cccnc2)n1 [CBK037645]	103	–
O=C1c2ccccc2C(=O)N1CCc1nn2c(-c3cccnc3)nnc2s1 [CBK269793]	97.9	–
CC(CCc1ccccc1)NC(=O)CCC(=O)O (centres unmarked) [CBK267918]	86.6	–
O=C(COc1ccc([N+](=O)[O-])cc1)Nc1ccc(S(=O)(=O)N2CCCCC2)cc1 [CBK265003]	119	–
CS(=O)(=O)N1CC2(CCN(CC(=O)c3ccsc3)CC2)c2ccccc21 [CBK144595T]	87	–
Cc1nn(CC(C)C)c(C)c1CCC(=O)NCc1nnc2ccccn12 [CBK305719]	88.1	–
O=C(O)c1cc(-n2c(S)nnc2-c2ccc3ccccc3n2)ccc1Cl [CBK269512]	86.1	–
CCN1CCN(C(=O)c2ccc3nc(-c4ccccc4)c(-c4ccccc4)nc3c2)CC1 [CBK269090]	94.7	–
COc1ccc(S(=O)(=O)N2CCC(C(=O)O)(c3ccccc3)CC2)cc1 [CBK267572]	94.3	–
CCC#CC(=O)Nc1cncc(OC2CCNCC2)n1 [CBK026731T]	93	–
CC(C)NC(=O)N1CC[C@H](c2nc3ncccc3[nH]2)C1 [CBK289369]	101	–
Cc1nc(CNC(=O)NC2CCCN(c3ccn(C)n3)C2=O)c(C)s1 (centres unmarked) [CBK305926]	95	–
CCCNc1cncc(-c2cccc(CO)c2)n1 [CBK065433]	95.7	–
CCOC(=O)CC(=O)CSc1nc(C)cc(-c2cccs2)c1C#N [CBK267446]	86.6	–
O=C(O)c1ccc(/C=C/C(=O)c2ccc3c(c2)OCCO3)cc1 [CBK262173]	89.1	–
CC(C)NC(=O)C1CC2CCC1(C)CC21NC(=O)c2ccccc2O1 (centres unmarked) [CBK285261]	92	–
COc1ccc([C@@]23CC[C@@H](NC(=O)Nc4cccc(-c5cnco5)c4)C[C@@H]2N(C)CC3)cc1OC [CBK059338T]	92.3	–
